Tests used:
NK2 [1] = biological target: T1, NK2 (Homo sapiens, UniProt P21452); test: NanoBiT cytosolic Ca^2+ response, NK2; type: cell-based; conditions: HEK293 cells, NK2, Calmodulin-SmBiT/LgBiT-MYLK2S, luminescence
T1 construct: expressed in transfected cells; host or cells: HEK293
T1 sequence (P21452 1-398): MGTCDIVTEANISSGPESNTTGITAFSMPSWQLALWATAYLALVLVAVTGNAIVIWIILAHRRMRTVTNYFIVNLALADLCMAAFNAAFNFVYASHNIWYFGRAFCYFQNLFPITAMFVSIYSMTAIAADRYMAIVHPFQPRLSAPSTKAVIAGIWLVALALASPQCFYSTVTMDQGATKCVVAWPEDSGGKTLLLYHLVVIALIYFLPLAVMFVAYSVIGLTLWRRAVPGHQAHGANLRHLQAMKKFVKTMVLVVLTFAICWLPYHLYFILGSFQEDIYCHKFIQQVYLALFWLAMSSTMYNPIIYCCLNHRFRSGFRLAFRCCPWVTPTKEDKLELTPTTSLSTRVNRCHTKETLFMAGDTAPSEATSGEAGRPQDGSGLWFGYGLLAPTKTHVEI
Procedure: NKs have been extensively studied, especially with respect to neuropeptide-stimulated Ca^2+ responses. Recently, we developed a real-time calcium assay based on NanoBiT and the Ca^2+-dependent interaction of calmodulin and its target proteins to analyze NK-mediated cellular responses. First, neuropeptide-stimulated luciferase activation was measured in cells expressing NKs and calcium probes to determine the suitability of our assay method. […] Next, the activation efficiency of receptors by each peptide was investigated on Ca^2+ responses based on NanoBiT assay.
NanoLuc Binary Technology (NanoBiT) was utilized to investigate protein–protein interaction. HEK293 cells were seeded in a 96-well white plate at a density of 2 × 10^4 cells per well. The following day, cells were transfected with 50 ng of each plasmid containing SmBiT- or LgBiT- tagged genes using 0.2 µl Lipofectamine 2000 (Invitrogen, Carlsbad, CA, USA). […] Baseline luminescence was measure for 10 min using a SpectraMax L plate reader (Molecular Devices, San Jose, CA, USA). After stimulation with ligands, the luminescence signal was continuously measured for 1 h.
Cytosolic Ca^2+ changes were detected using a NanoBiT system as described previously. […]

NK1 = biological target: T2, NK1 (Homo sapiens, UniProt P25103); test: NanoBiT β-arrestin1 recruitment to NK1 (NK1-SmBiT/β-arr1-LgBiT); type: cell-based
T2 construct: expressed in transfected cells; host or cells: HEK293
Procedure: (§1) Ligand-stimulated β-arrestin recruitment to receptors was also examined using the NanoBiT system. The NanoBiT system was used to create construct combinations of receptors and β-arrestin, which were tagged with either SmBiT or LgBiT at N- or C-terminal. These constructs were then expressed in HEK293 cells.
(§2) NanoLuc Binary Technology (NanoBiT) was utilized to investigate protein–protein interaction. HEK293 cells were seeded in a 96-well white plate at a density of 2 × 10^4 cells per well. The following day, cells were transfected with 50 ng of each plasmid containing SmBiT- or LgBiT- tagged genes using 0.2 µl Lipofectamine 2000 (Invitrogen, Carlsbad, CA, USA). To investigate the effect of one receptor on another receptor in β-arrestin recruitment, 100 ng of un-tagged receptor was co-transfected with 50 ng of each of NanoBiT-tagged plasmid and mixed with 0.4 µl Lipofectamine 2000. At 24 h after transfection, the medium was changed to 100 µl of Opti-MEM and the plate was stabilized at room temperature for 10 min before adding NanoBiT substrate. If an inhibitor was used, it was pre-incubated at 37 ℃ for 20 min and at room temperature for 10 min before substrate addition. Baseline luminescence was measure for 10 min using a SpectraMax L plate reader (Molecular Devices, San Jose, CA, USA). After stimulation with ligands, the luminescence signal was continuously measured for 1 h.

[2] = tested on: human colorectal cancer cell DLD-1; conditions: cited from earlier work
From the text: Although some studies have reported that NK1 and NK2 are expressed in some cancers, the role of NK2 in cancer remains controversial.

NK2 [3] = test: NanoBiT β-arrestin1 recruitment to NK2 (NK2-LgBiT/β-arr1-SmBiT); type: cell-based; conditions: for effect of aprepitant on NKA-stimulated β-arrestin1 recruitment: 10 nM NKA
Procedure: as §1, §2

[4] = cited from earlier work
[5] = biological target: Neurokinin-1 receptor, C-terminal SmBiT- or LgBiT-tagged (UniProt P25103 1-407); test: cell-based or functional assay
Chain of Neurokinin-1 receptor, C-terminal SmBiT- or LgBiT-tagged (P25103 whole entry): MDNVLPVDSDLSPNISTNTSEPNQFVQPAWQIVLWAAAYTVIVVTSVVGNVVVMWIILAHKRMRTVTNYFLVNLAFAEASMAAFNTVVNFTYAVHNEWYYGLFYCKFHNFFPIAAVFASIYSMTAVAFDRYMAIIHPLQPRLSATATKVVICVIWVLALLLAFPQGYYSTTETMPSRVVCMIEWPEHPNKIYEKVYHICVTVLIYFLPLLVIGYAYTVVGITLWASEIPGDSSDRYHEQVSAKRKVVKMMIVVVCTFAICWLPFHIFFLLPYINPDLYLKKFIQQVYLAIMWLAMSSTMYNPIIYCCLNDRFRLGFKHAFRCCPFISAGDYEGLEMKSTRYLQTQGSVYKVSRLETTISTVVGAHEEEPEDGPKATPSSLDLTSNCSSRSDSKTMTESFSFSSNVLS

T2 sequence (P25103 whole entry): as above

`CSCC[C@H](NC(=O)[C@H](CC(C)C)NC(=O)CNC(=O)[C@@H](NC(=O)[C@H](Cc1ccccc1)NC(=O)[C@H](Cc1ccccc1)NC(=O)[C@H](CC(=O)O)NC(=O)[C@H](Cc1c[nH]cn1)NC(=O)[C@H](CCSC)NC(=O)[C@@H](N)CC(=O)O)C(C)C)C(N)=O` [NKB, neurokinin B] showed an EC50 (NK2 [1]) of 0.24 nM.

With `C[C@@H](O[C@H]1OCCN(Cc2n[nH]c(=O)[nH]2)[C@H]1c1ccc(F)cc1)c1cc(C(F)(F)F)cc(C(F)(F)F)c1` [aprepitant] the “SP-stimulated luciferase activities in the presence of aprepitant and intact NK2” value (NK1; NK1-SmBiT/β-arr1-LgBiT + intact NK2, 1 μM aprepitant 30 min, 1 μM SP) was “slightly increased by SP even in the presence of the inhibitor”, the “NKA-stimulated luciferase activities in the presence of aprepitant and intact NK2” value (NK1; NK1-SmBiT/β-arr1-LgBiT + intact NK2, aprepitant 30 min, 10 nM NKA) was “slightly increased by NKA in the presence of aprepitant” and the “effect of aprepitant on SP-stimulated β-arrestin1 recruitment” value (NK1; NK1-SmBiT/β-arr1-LgBiT, 1 μM aprepitant 30 min, 1 μM SP) was “completely inhibited”. The “effect of aprepitant on NKA-stimulated β-arrestin1 recruitment” value (NK1; NK1-SmBiT/β-arr1-LgBiT, aprepitant 30 min, 10 nM NKA) was “inhibited”, the “effect on AKT/mTOR and Wnt/β-catenin signaling pathways” value [2] was “suppression of AKT/mTOR and Wnt/β-catenin signaling pathways” and the “effect of aprepitant on SP-stimulated NK2/β-arrestin1 interaction” value (NK2 [3]; NK2-LgBiT/β-arr1-SmBiT + intact NK1, 10 nM SP, aprepitant) was “inhibited luciferase activities”. The “effect of aprepitant on NKA-stimulated β-arrestin1 recruitment” value (NK2 [3]; NK2-LgBiT/β-arr1-SmBiT + intact NK1, aprepitant 30 min) was “not downregulated”, the “effect of aprepitant on SP-stimulated β-arrestin1 recruitment” value (NK2 [3]; NK2-LgBiT/β-arr1-SmBiT, 1 μM aprepitant 30 min, 1 μM SP) was “not affected” and the “effect of aprepitant on NKA-stimulated β-arrestin1 recruitment” value (NK2 [3]; NK2-LgBiT/β-arr1-SmBiT, aprepitant 30 min) was “not influenced”. The antitumor activity [4] was “antitumor activities through promoting apoptotic mechanisms”.

B1: Neurokinin-2 receptor, C-terminal SmBiT- or LgBiT-tagged (receptor, UniProt P21452 1-398, looked up)
chain: MGTCDIVTEANISSGPESNTTGITAFSMPSWQLALWATAYLALVLVAVTGNAIVIWIILAHRRMRTVTNYFIVNLALADLCMAAFNAAFNFVYASHNIWYFGRAFCYFQNLFPITAMFVSIYSMTAIAADRYMAIVHPFQPRLSAPSTKAVIAGIWLVALALASPQCFYSTVTMDQGATKCVVAWPEDSGGKTLLLYHLVVIALIYFLPLAVMFVAYSVIGLTLWRRAVPGHQAHGANLRHLQAMKKFVKTMVLVVLTFAICWLPYHLYFILGSFQEDIYCHKFIQQVYLALFWLAMSSTMYNPIIYCCLNHRFRSGFRLAFRCCPWVTPTKEDKLELTPTTSLSTRVNRCHTKETLFMAGDTAPSEATSGEAGRPQDGSGLWFGYGLLAPTKTHVEI
In the case of B1, the “EC50 of SP for recruitment of β-arrestin1-SmBiT to NK2-LgBiT (NanoBiT luciferase) with intact NK1 co-expressed” value [5] is reported as 164 nM.

From PMC10652611 (Cell & Bioscience, 2023)
